In publication PMC3871185 (ACS medicinal chemistry letters, 2013):
In brackets after ≈: the same amount, converted by molar mass. Entries after “also recorded” stand apart in the source; their conditions may differ.

Columns and labels:
[1] = test system: B. pseudomallei; details: cited from earlier work
[2] = test system: Burkholderia thailandensis; details: cited from earlier work
[3] = test system: clinical B. pseudomallei isolates; details: cited from earlier work
[4] = test system: hMetAP1; details: read-out: hMetAP1 IC50; cited from earlier work
[5] = test system: hMetAP2; details: cited from earlier work; for IC50: read-out: hMetAP2 IC50
[6] = test system: Burkholderia thailandensis
[7] = biological target: BpMetAP1 (Burkholderia pseudomallei, UniProt Q63T11)
[8] = test system: Burkholderia thailandensis; experiment: microbe, parasite or virus in culture; details: read-out: minimum inhibitory concentration (MIC)
[9] = test system: B. pseudomallei 1026b; type: cell-based, Burkholderia pseudomallei
[10] = test system: B. pseudomallei strain Bp340; type: cell-based, Burkholderia pseudomallei

BpMetAP1, sequence (Q63T11 1-271): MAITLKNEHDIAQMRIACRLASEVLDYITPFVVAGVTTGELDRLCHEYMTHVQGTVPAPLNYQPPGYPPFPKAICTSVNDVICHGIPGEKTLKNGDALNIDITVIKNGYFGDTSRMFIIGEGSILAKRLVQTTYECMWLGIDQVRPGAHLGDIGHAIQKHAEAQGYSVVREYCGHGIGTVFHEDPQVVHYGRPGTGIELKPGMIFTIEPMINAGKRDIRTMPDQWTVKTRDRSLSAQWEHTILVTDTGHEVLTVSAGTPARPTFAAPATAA

Row | SMILES | growth inhibition of B. thailandensis (in words) [6] | BpMetAP1 inhibition potency (in words) [7] | also measured
1 | NC[C@H]1O[C@H](O[C@H]2[C@H](O)[C@@H](O[C@H]3O[C@H](CO)[C@@H](O)[C@H](N)[C@H]3O)[C@H](N)C[C@@H]2N)[C@H](O)[C@@H](O)[C@@H]1O [Km, kanamycin] |  |  | killing of B. pseudomallei [1]: complete killing; killing of B. thailandensis [2]: complete killing
2 | CC(C)(O/N=C(\C(=O)N[C@@H]1C(=O)N2C(C(=O)[O-])=C(C[n+]3ccccc3)CS[C@H]12)c1csc(N)n1)C(=O)O [ceftazidime] |  |  | MIC [3]: 1 to 6 µg/mL
3 | O=S(=O)(O)c1ccc(O)c2ncccc12 [compound 1] |  |  | IC50 [4]: > 15 µM; IC50 [5]: > 15 µM
4 | Cc1ccc2cccc(O)c2n1 [compound 2, reference compound] | inhibited cell growth | inactive | IC50 [4]: > 15 µM; IC50 [5]: > 15 µM
5 | Oc1cccc2cccnc12 [compound 3, reference compound] | inhibited cell growth |  | IC50 [4]: > 15 µM
6 | Oc1c(CN2CCCCC2)cc(Cl)c2cccnc12 [compound 5] |  | Met-AP inhibition | 
7 | Oc1c(CN2CCSCC2)cc(Cl)c2cccnc12 [compound 7] | inhibited cell growth |  | 
8 | O=[N+]([O-])c1ccc(O)c2ncccc12 [compound 9, 5-nitro-8-hydroxyquinoline] | potent growth inhibitors; also recorded: inhibition of cell growth | Met-AP inhibition | MIC [8]: ~6 µg/mL (≈ 31.6 µM); IC50 [4]: > 15 µM; inhibition of B. pseudomallei 1026b [9]: no difference in inhibition compared to Bp340; growth inhibition of B. pseudomallei Bp340 [10]: complete growth inhibition; activity against human MetAP2 in vitro [5]: nanomolar range
9 | O=[N+]([O-])c1cc(CN2CCCCC2)c(O)c2ncccc12 [compound 10] | inactive | decreased potency | 
10 | CN(C)Cc1cc([N+](=O)[O-])c2cccnc2c1O [compound 11] | potent growth inhibitors; also recorded: inhibition of cell growth |  | 
11 | O=[N+]([O-])c1cc(CN2CCCC2)c(O)c2ncccc12 [compound 12] | potent growth inhibitors; also recorded: inhibition of cell growth |  | 
12 | O=[N+]([O-])c1cc(CN2CCOCC2)c(O)c2ncccc12 [compound 13] |  | decreased potency | 
13 | O=[N+]([O-])c1cc(CN2CCSCC2)c(O)c2ncccc12 [compound 14] |  | decreased potency | 
14 | CN1CCN(Cc2cc([N+](=O)[O-])c3cccnc3c2O)CC1 [compound 15] | potent growth inhibitors; also recorded: inhibition of cell growth; also recorded: nearly complete cell growth inhibition |  | 
15 | Cc1ccc(CSc2nnc(N)[nH]2)cc1 [compound 16] |  | low micromolar range | 
16 | Nc1nnc(SCc2ccc(F)cc2)[nH]1 [compound 17] |  | low micromolar range | 
17 | Nc1nnc(SCc2ccc(Cl)cc2Cl)[nH]1 [compound 18] |  | low micromolar range | 
18 | O=C(O)c1ccc(-c2ccccc2Cl)o1 [compound 22, reference compound] | essentially no ability to inhibit bacterial growth |  | 
19 | O=C(O)c1ccc(-c2cc(Cl)ccc2Cl)o1 [compound 23, reference compound] | essentially no ability to inhibit bacterial growth |  | 
20 | O=C(O)c1cc(Br)ccc1NS(=O)(=O)c1ccc(Cl)cc1 [compound 25] | nor the sulfonamide (24 and 25) derivatives demonstrated significant growth inhibition |  | 
